No end group written: not given here.
Target: T1, human GPR54 (Homo sapiens, UniProt Q969F8)
T1 construct: host or cells: Chem-1 host cells, with the promiscuous G protein Galpha15 (Gal 5 [sic])
Experiment: FLIPR calcium flux agonist assay on GPR54-expressing Chem-1 cell line
Format: cell-based
Conditions: time of release n/a (no release incubation); for EC50: read-out: EC50 (nM) of agonist activation at GPR54
Procedure: A FLIPR assay was conducted to screen Kisspeptin and PEG-Kisspeptin peptides for dose-dependent agonist activities on the GP[…]-Protein coupled receptor. […] All compounds were diluted in their storage solvents to produce 250× (of the top dose listed below) master stock solutions. Compounds were then transferred from their master stock solutions into a daughter plate that was used in the assay. Each 250× solution was diluted into assay buffer (1×HBSS with 20 mM HEPES and 2.5 mM Probenecid) to obtain the final top test concentration. Calcium flux agonist assay: Chemicon's cloned human GPR54-expressing cell line is made in the Chem-1 host, which supports high levels of recombinant GPR54 expression on the cell surface and contains high levels of the promiscuous G protein Gal 5 to couple the receptor to the calcium signaling pathway. […] Reference agonist was handled as mentioned above, serving as assay control. Assay was read for 180 seconds using the FLIPR^TETRA. All plates were subjected to appropriate baseline corrections. Once baseline corrections were processed, maximum fluorescence values were exported and data manipulated to calculate percentage activation and Z'. Dose response curves were generated using GraphPad Prism. The curves were fit by utilizing sigmoidal dose response (variable slope) fitting with the bottom parameter fixed at 0 (FIGS.

T1 sequence (Q969F8 whole entry): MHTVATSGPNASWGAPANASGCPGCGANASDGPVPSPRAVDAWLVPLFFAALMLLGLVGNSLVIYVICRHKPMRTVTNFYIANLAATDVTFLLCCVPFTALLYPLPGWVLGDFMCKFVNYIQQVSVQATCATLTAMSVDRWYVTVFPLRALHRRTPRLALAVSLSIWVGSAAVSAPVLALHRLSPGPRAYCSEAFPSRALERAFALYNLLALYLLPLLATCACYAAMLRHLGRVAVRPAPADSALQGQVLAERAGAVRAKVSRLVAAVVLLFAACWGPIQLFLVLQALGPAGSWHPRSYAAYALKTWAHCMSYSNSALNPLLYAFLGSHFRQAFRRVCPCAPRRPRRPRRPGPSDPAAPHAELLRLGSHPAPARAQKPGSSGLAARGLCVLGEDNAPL

| EC50 (nM) of agonist activation at GPR54 | Compound | Fold change compared to metastin [fold] | EC50 [nM] |
| --- | --- | --- | --- |
| – | CC(C)C[C@H](NC(=O)CNC(=O)[C@H](Cc1ccccc1)NC(=O)[C@H](CO)NC(=O)[C@H](CC(N)=O)NC(=O)[C@H](Cc1c[nH]c2ccccc12)NC(=O)[C@H](CC(N)=O)NC(=O)[C@H](Cc1ccc(O)cc1)NC(=O)[C@H](CC(N)=O)NC(=O)[C@@H]1CCCN1C(=O)[C@@H](N)CC(C)C)C(=O)N[C@@H](CCCNC(=N)N)C(=O)N[C@@H](Cc1ccccc1)C(N)=O [KP13] | 1 | 11 |
| – | CC(C)C[C@H](NC(=O)CNC(=O)[C@H](Cc1ccccc1)NC(=O)[C@H](CO)NC(=O)[C@H](CC(N)=O)NC(=O)[C@H](Cc1c[nH]c2ccccc12)NC(=O)[C@H](CC(N)=O)NC(=O)[C@@H](N)Cc1ccc(O)cc1)C(=O)N[C@@H](CCCNC(=N)N)C(=O)N[C@@H](Cc1ccccc1)C(N)=O [KP10] | 1 | 10 |
| – | GTSLSPPPESSGSPQQPGLSAPHSRQIPAPQGAVLVQREKDLPNYNWNSFGLRF-NH2 [KP54] | 16 | 190 |
| No activity | Ald40K-KP54: Kisspeptin-54 mono-PEGylated with mPEG2-ButyrAldehyde-40K by reductive amination (stable conjugate) (GTSLSPPPESSGSPQQPGLSAPHSRQIPAPQGAVLVQREKDLPNYNWNSFGLRF-NH2; also: mono-PEGylated with mPEG2-butyraldehyde 40K by reductive amination, site not given here; UniProt Q15726 68-121, looked up) | – | – |
| No activity | Ald30K-KP13: Kisspeptin-13 mono-PEGylated with linear mPEG-ButyrALD-30K by reductive amination (stable conjugate) (LPNYNWNSFGLRF; also: mono-PEGylated with mPEG-butyraldehyde 30K by reductive amination, site not given here; UniProt Q15726 109-121, looked up) | – | – |
